In patent US11072581B2, “N-acyl-arylsulfonamide derivatives as aminoacyl-tRNA synthetase inhibitors” (Oxford Drug Design Limited, priority 2015, dated 2021):
Structures can show the parent of a compound that is named as a salt.

What was measured:
Assay type in all cases: biochemical
Conditions in all cases: i.a. = inactive at a concentration below 50 uM
[1] = target: T1, SauVRS (valyl-tRNA synthetase from Staphylococcus aureus) (Staphylococcus aureus, UniProt Q2FXR8); experiment: aaRS aminoacylation assay (ATP consumption), SauVRS
T1 construct: made in house; host or cells: Escherichia coli M15
T1 sequence (Q2FXR8 1-876): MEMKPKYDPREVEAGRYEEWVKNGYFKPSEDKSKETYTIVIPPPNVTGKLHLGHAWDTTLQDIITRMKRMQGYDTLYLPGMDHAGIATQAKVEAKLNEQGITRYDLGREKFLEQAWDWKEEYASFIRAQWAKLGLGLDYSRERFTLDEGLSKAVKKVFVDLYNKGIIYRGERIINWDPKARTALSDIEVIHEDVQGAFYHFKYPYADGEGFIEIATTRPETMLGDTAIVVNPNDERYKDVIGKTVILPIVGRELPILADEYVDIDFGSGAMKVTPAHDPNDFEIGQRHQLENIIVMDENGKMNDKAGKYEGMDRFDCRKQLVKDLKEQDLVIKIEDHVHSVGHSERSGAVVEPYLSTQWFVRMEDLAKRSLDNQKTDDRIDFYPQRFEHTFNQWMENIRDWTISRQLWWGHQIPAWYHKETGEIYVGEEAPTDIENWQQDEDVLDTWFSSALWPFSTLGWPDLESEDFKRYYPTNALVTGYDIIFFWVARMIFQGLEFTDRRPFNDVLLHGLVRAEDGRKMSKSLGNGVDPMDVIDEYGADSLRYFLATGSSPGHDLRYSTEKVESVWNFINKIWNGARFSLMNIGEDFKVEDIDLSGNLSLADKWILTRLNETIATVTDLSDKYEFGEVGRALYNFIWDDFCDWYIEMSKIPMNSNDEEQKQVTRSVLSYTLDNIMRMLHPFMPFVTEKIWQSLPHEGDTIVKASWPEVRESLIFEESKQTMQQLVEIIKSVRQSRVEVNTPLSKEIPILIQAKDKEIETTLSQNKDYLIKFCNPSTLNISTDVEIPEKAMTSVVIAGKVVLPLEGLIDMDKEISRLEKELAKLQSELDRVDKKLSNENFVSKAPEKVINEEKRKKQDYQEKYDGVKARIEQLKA
Protocol: (§1) The compounds have been tested for antibacterial activity in vitro as aminoacyl-tRNA synthetases (aaRS) inhibitors following the following process.
(§2) Leucyl-, valyl- and isoleucyl-tRNA synthetases (LRS, VRS and IRS, respectively) from Escherichia coli (Eco) and Staphylococcus aureus (Sau).
(§3) Escherichia coli M15 cells transformed with plasmid pQE-60, or pQE-70, containing the open-reading frame sequence of one targeted aaRS were induced with 1 mM IPTG (Isopropyl β-D-1-thiogalactopyranoside) for 3 h at 37° C. Bacterial cells were harvested and lysed with 20 mM NaH2PO4 (pH 8.0), 200 mM NaCl, 10 mM imidazole and protease inhibitor cocktail (Roche). Pathogenic aaRS was purified by nickel affinity standard chromatography. Protein concentration was determined by spectrophotometry.
(§4) tRNA^Leu, tRNA^Val and tRNA^Ile from E. coli and S. aureus were transcribed in vitro for 4 h at 37° C. using T7 RNA polymerase. Transcription reaction contained 40 mM Tris-HCl (pH 8.0), 22 mM MgCl2, 1 mM spermidine, 5 mM DTT, 0.01% Triton X-100, 4 mM GTP, 4 mM ATP, 4 mM UTP, 4 mM CTP, 16 mM GMP, […] T7 RNA polymerase and 150 μg BstNI digested plasmid. Once finished, the reaction was applied on a 6% polyacrylamide-8 M urea denaturing gel to purify the transcribed tRNA and discard any impurities. Purified tRNA was quantified with Nanodrop 2000 (Thermo Scientific).
(§5) The aminoacylation reaction catalyzed by aminoacyl-tRNA synthetases (aaRS) takes place in two steps. In the first step, aaRS activates its cognate amino acid with ATP; and in the second step the activated amino acid is loaded to its corresponding tRNA. This reaction can be summarized as follows: ARS+aa+ATP=ARS-aa-AMP+PPi ARS-aa-AMP+tRNA=aa-tRNA+AMP+ARS [2] (ARS, Aminoacyl-tRNA synthetase; aa, amino acid; ARS-aa-AMP, enzyme-bound to aminoacyl-adenylate; aa-tRNA, aminoacyl-tRNA).
(§6) The activity of the pathogenic aaRSs was monitored by measuring the ATP consumption rate, since this consumption is directly proportional to the activity of the aaRS. If the tested compound, at a single point concentration of 50 μM, is inhibiting the aminoacylation reaction, there is a decrease in the ATP consumption, compared to the control reaction without compound, allowing the calculation of an inhibition ratio.
(§7) When the inhibition ratio for a given compound was above 80%, IC50 determination was performed with the same enzymatic assay (using the commercial kit Kinase RR from BioThema AB, Sweden) in the presence of serial dilutions of inhibitor. Known inhibitors of LRS, VRS or IRS were used as a positive control of the assay. The IC50 was calculated based on nonlinear regression analysis.

[2] = target: T2, EcoIRS (isoleucyl-tRNA synthetase from Escherichia coli) (Escherichia coli, UniProt P00956); experiment: aaRS aminoacylation assay (ATP consumption), EcoIRS
T2 construct: made in house; host or cells: Escherichia coli M15
Protocol: as §1, §2, §3, §4, §5, §6, §7

[3] = target: T3, SauIRS (isoleucyl-tRNA synthetase from Staphylococcus aureus) (Staphylococcus aureus, UniProt P41972); experiment: aaRS aminoacylation assay (ATP consumption), SauIRS
T3 construct: made in house; host or cells: Escherichia coli M15
T3 sequence (P41972 1-917): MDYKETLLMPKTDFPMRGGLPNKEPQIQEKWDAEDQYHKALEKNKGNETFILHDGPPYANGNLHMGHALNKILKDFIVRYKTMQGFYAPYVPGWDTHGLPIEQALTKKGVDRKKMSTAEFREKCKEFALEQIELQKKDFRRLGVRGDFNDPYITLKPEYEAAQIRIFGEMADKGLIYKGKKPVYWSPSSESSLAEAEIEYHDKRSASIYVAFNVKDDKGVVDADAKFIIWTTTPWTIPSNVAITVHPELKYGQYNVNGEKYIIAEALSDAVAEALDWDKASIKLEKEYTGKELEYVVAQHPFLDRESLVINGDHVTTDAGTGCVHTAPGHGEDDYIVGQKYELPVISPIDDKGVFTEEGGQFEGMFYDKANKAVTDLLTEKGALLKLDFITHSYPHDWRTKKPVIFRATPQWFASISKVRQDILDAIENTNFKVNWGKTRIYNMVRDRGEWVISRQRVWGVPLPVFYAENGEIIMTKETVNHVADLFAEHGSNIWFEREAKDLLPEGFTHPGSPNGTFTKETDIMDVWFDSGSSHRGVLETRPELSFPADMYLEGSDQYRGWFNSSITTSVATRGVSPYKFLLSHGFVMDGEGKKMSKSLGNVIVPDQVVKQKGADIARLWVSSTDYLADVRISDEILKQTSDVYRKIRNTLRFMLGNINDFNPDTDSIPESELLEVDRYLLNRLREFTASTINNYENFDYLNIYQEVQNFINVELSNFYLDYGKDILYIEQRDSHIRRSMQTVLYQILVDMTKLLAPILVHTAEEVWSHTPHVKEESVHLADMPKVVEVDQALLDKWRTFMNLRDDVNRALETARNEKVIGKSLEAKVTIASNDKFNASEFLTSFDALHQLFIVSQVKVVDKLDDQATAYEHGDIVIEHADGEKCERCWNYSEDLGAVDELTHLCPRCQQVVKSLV
Protocol: as §1, §2, §3, §4, §5, §6, §7

T2 sequence (P00956 whole entry): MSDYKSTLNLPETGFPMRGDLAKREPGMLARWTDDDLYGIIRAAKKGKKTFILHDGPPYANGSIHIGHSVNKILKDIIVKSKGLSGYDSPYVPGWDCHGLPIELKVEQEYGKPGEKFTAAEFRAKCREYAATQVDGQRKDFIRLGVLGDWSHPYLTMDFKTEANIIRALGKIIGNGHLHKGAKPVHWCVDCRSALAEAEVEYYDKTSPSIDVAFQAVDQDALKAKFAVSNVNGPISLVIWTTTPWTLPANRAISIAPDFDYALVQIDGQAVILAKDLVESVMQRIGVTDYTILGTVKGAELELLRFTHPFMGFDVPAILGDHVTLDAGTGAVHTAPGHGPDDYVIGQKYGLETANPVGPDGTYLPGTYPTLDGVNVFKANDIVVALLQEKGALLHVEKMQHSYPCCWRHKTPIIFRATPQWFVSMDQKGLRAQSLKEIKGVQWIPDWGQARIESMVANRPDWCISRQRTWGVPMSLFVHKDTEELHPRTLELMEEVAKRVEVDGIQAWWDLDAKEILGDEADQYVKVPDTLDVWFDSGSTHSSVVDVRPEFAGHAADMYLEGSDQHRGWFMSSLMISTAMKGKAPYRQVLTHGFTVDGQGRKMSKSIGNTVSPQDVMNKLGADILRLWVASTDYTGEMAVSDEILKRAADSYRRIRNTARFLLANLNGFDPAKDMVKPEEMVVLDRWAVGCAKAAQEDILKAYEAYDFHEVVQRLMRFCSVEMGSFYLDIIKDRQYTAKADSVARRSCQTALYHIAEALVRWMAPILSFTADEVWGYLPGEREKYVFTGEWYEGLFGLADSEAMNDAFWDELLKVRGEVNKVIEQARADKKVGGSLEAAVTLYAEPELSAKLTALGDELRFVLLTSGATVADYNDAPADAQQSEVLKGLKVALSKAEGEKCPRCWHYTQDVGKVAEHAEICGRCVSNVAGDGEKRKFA

SMILES | IC50 SauVRS [1] | IC50 EcoIRS [2] | IC50 SauIRS [3]
N[C@@H](CC1CC1)C(=O)NS(=O)(=O)c1cccc(-c2ccccc2)c1 (racemic) [Compound 5.10] | i.a | i.a | i.a
CC(C)C[C@H](N)C(=O)NS(=O)(=O)c1ccccc1 [Compound 5.1, (S)-2-amino-4-methyl-N-(phenylsulfonyl)pentanamide hydrochloride] | i.a. | i.a. | i.a.
CC(C)C[C@H](N)C(=O)NS(=O)(=O)c1ccc(Oc2ccccc2)cc1 [Compound 5.2] | i.a | i.a | i.a
CC(C)C[C@H](N)C(=O)NS(=O)(=O)c1ccccc1-c1ccccc1 [Compound 5.3] | i.a | i.a | i.a
CC(C)C[C@H](N)C(=O)NS(=O)(=O)c1cccc(Cl)c1 [Compound 5.4] | i.a | i.a | i.a
CC(C)C[C@H](N)C(=O)NS(=O)(=O)c1ccccc1Cl [Compound 5.5] | i.a | i.a | i.a
CC(C)C[C@H](N)C(=O)NS(=O)(=O)c1ccccc1F [Compound 5.6] | i.a | i.a | i.a
CCCCc1ccc(S(=O)(=O)NC(=O)[C@@H](N)CC(C)C)cc1 [Compound 5.7] | i.a | i.a | i.a
CC(C)C[C@H](N)C(=O)NS(=O)(=O)c1cccc(-c2ccccc2)c1 [Compound 5.9] | i.a | i.a | i.a
CC(C)C[C@H](N)C(=O)NS(=O)(=O)c1ccc(-c2ccccc2)cc1 [Compound 5.11] | i.a | i.a | i.a
CC(C)C[C@H](N)C(=O)NS(=O)(=O)c1c(C(C)C)cc(C(C)C)cc1C(C)C [Compound 5.12] | i.a | i.a | i.a
CC(C)C[C@H](N)C(=O)NS(=O)(=O)c1cccc2ccccc12 [Compound 5.13] | i.a | i.a | i.a
CC(C)C[C@H](N)C(=O)NS(=O)(=O)c1ccc2ccccc2c1 [Compound 5.14] | i.a | i.a | i.a
Cc1cc(-c2cccc(S(=O)(=O)NC(=O)[C@@H](N)CC(C)C)c2)nc(N)n1 [Compound 5.35, (S)-2-amino-N-((3-(2-amino-6-methylpyrimidin-4-yl)phenyl)sulfonyl)-4-methylpentanamide] | i.a. | – | i.a.
COc1cc(-c2cccc(S(=O)(=O)NC(=O)[C@@H](N)CC(C)C)c2)nc(N)n1 [Compound 5.36] | i.a. | – | i.a.
CC(C)C[C@H](N)C(=O)NS(=O)(=O)c1cccc(-c2ccnc(N)n2)c1 [Compound 5.37] | i.a. | – | i.a.
CC(C)C[C@H](N)C(=O)NS(=O)(=O)c1cccc(-c2nc(N)nc3nc[nH]c23)c1 [Compound 5.38] | i.a. | – | i.a.
Cc1cc(-c2cccc(S(=O)(=O)NC(=O)[C@@H](N)CC(C)C)c2)ncn1 [Compound 5.39] | i.a. | – | i.a.
CC[C@H](C)[C@H](N)C(=O)NS(=O)(=O)c1cccc(-c2cc(C)nc(N)n2)c1 [Compound 5.40] | i.a. | – | i.a.
CC(C)C[C@H](N)C(=O)NS(=O)(=O)c1cccc(-c2cc(-c3ccccc3)nc(N)n2)c1 [Compound 5.41] | i.a. | – | i.a.
CC(C)C[C@H](N)C(=O)NS(=O)(=O)c1cccc(-c2ccncc2)c1 [Compound 5.42] | i.a. | – | i.a.
CC(C)C[C@H](N)C(=O)NS(=O)(=O)c1cccc(-c2ccnc(N)c2)c1 [Compound 5.43] | i.a. | – | i.a.
CC(C)C[C@H](N)C(=O)NS(=O)(=O)c1cccc(-c2cccc(N)n2)c1 [Compound 5.44] | i.a. | – | i.a.
CC(C)C[C@H](N)C(=O)NS(=O)(=O)c1cccc(-c2cc(N)nc(N)n2)c1 [Compound 5.45] | i.a. | – | i.a.
CC(C)C[C@H](N)C(=O)NS(=O)(=O)c1cccc(-c2cc(N)ncn2)c1 [Compound 5.46] | i.a. | – | i.a.
CCc1cc(-c2cccc(S(=O)(=O)NC(=O)[C@@H](N)CC(C)C)c2)nc(N)n1 [Compound 5.47] | i.a. | – | i.a.
CC(C)C[C@H](N)C(=O)NS(=O)(=O)c1cccc(-c2ncnc(N)n2)c1 [Compound 5.48] | i.a. | – | i.a.
CC(C)C[C@H](N)C(=O)NS(=O)(=O)c1cccc(-c2ccnc(Cl)n2)c1 [Compound 5.49] | i.a. | – | i.a.
CC(C)C[C@H](N)C(=O)NS(=O)(=O)c1cccc(-c2ccnc(O)n2)c1 [Compound 5.50] | i.a. | – | i.a.
